Here are results for one molecule from US12564188B2, “Hydrogel beads for controlled uptake and release of cryoprotective agents” (The General Hospital Corporation, priority 2020, dated 2026).

Read-outs that look alike come from different tables or passages of the source.

The nature of data set [1]: DMSO release from hydrogel beads into saline, osmolality by micro-osmometer. In kind it is physicochemical. The following applies: room temperature, 5.0 μL beads incubated in 15% DMSO. On the procedure: Here, beads 1-5 mm in diameter were synthesized using microfluidic droplet generation and 2% polyacrylamide/bis-acrylamide, following standard oil emulsion methods^43, and beads were synthesized using calcium alginate. Uniform calcium-alginate hydrogel beads were synthesized by dripping 5% alginate from a needle with a surrounding nitrogen gas sheath into a CaCl2 bath. Bead size and uniformity was confirmed by imaging. 5.0 μL beads were incubated for four hours in a 15% DMSO solution, then strained, blotted, and weighed. Beads were then suspended in saline for several minutes under gentle mixing, and the rate of DMSO release was measured over time by sampling the solution and measuring osmolality by micro-osmometer. The rate of release was compared with numerical simulations of diffusion based on the average bead size (FIG. 3). The diffusion coefficient of DMSO within the gel was measured to be 1.0×10^−5 cm^2s^−1 at room temperature, matching expected values^41,42.
Expected outcomes and alternative approaches: The key metric of success is the ability to reliably add and then remove CPA from a given sample solution at tunable rates which are predicted by modeling. Bead geometry alone is sufficient to achieve gradual CPA uptake and release. The sample recovery was about 96% without any dilution in these experiments.

Another data set concerns patients. The following applies: cited from earlier work.
Setting [2] is: DMSO implicated, co-injection with CAR T cells.

In the case of `C[S+](C)[O-]` [DMSO, dimethyl sulfoxide], the “diffusion coefficient of DMSO within the gel” value in data set [1] was 1.0×10^−5 cm^2s^−1. Moreover, in the data set on patients (setting [2]), the aphasia was 18%, the delirium is listed as 29%, the encephalopathy is on record as 34% and the tremors is on record as 29%. Further, the “patients experiencing nausea and vomiting” value with patients (co-injection of 10-20 mL DMSO along with CAR T cells) was 40-60%. For the same molecule, the “patients experiencing nausea and vomiting” value with patients (co-injection of approximately 10 mL DMSO along with thawed CAR T cell product) is “up to 60%”.
